Results taken from EP3532040B1, “A PERSONAL CARE COMPOSITION” (Unilever Global IP Limited, priority 2016, dated 2018).

Columns and labels:
[1] = Visual assessment of color of the compound compared with curcumin; type: physicochemical; conditions: color of the compound itself
Excerpt: It is desirable that the color of the novel compound of the present invention lies within the colorless to light yellow range for optimum visual appeal and usage in topical and/or skin care compositions. Visual assessment of color from a solid or solution sample of novel compounds in comparison to a solid or solution sample of curcumin provides a means to determine relative reduction of color and appeal potential. In addition, UV-Vis spectra of solution samples of novel compounds in comparison to a solution sample of curcumin provides a means to measure color experimentally and allows a more direct measurement of color. Thus, using these two simple measurements it is possible to assess the relative reduction in color of novel inventive compounds relative to curcumin and allows prioritization of compounds for further development.

[2] = Color assessment of solutions (L*a*b* color space, Labscan XE, and visual appearance); type: physicochemical; conditions: 200 µM in ethyl acetate; for b* / L* / a*: 21 °C; for b*: vehicle 1.78; for L*: vehicle 68.79; for a*: vehicle -0.49
Protocol: Solutions of compound with formula 1 and curcumin were prepared in ethyl acetate (200 µM) and the L*a*b* color space measured at room temperature (21 °C) using a Labscan XE instrument (Hunter Associates Labs Inc., Reston, VA) and processed with Universal Software (version 4.10). […]

[3] = test system: THP1-XBlue cells; test: Anti-inflammation efficacy in THP-1 in vitro assay (LPS-stimulated IL-6 release, ELISA); type: cell-based; conditions: 24 h, PMA-differentiated cells, LPS alone 10508
Protocol: THP1-XBlue™ (Cat No: thpx-sp, InvivoGen) cells were cultured as suspense in RPMI 1640 medium supplemented with 10% FBS, penicillin (10 U/mL) - streptomycin (10 µg/ML). Cells were differentiated in 24-well plates at the density of 5 × 10^5 cells / well with 100 nM PMA for 72 h. Cells were then co-treated with pure E. coli lipopolysaccharides (LPS) and with active. After 24 h, the supernatants were collected and measured for interleukin (IL)-6 as pro-inflammatory bio-marker using enzyme-linked immunosorbent assay (ELISA).

[4] = Solubility in solvents compared with curcumin; type: physicochemical
[5] = test system: Primary human gingival fibroblasts; test: Anti-inflammation efficacy in Human Gingival Fibroblasts assay (P. gingivalis-stimulated IL-6, IL-8, MCP-1 release, ELISA); type: cell-based; conditions: 20 µM active preincubated 2 h, then heat-inactivated P. gingivalis 4 h
Protocol: Primary human gingival fibroblasts (HGFs, Cat No. 2620, ScienCell™) were cultured in complete fibroblast medium which included 500 mL of basal medium, 10 mL of fetal bovine serum (FBS), 5 mL of fibroblast growth supplement, and 5 mL of penicillin/streptomycin solution (Cat No. 2301, ScienCell™). HGFs were seeded in 24 well-plates at the density of 2 × 10^4 cells / well and cultured for 72 h. Cells were preincubated with active for 2 h. After removal of the active medium, the cells were washed with PBS and further treated with heat-inactivated P. gingivalis (Cat. 33277, ATCC). After 4 h, the supernatants were collected and measured for IL-6, IL-8 and monocyte chemoattractant protein (MCP) -1 as pro-inflammatory bio-markers using ELISA.

| Compound | color [1] | Appearance (visual appearance of solution) [2] | b* [2] | L* [2] | a* [2] | Concentration of IL-6 ([3]; 10 µM active co-treated with E. coli LPS) [pg/mL] | Concentration of IL-6 ([3]; 20 µM active co-treated with E. coli LPS) [pg/mL] | solubility in a broad spectrum of solvents [4] | Concentration MCP-1 ([5]; P. gingivalis alone 388) [pg/mL] | Concentration IL-6 ([5]; P. gingivalis alone 595) [pg/mL] | Concentration IL-8 ([5]; P. gingivalis alone 17100) [pg/mL] |
| --- | --- | --- | --- | --- | --- | --- | --- | --- | --- | --- | --- |
| COc1cc(/C=C/C(=O)CC(=O)/C=C/c2ccc(O)c(OC)c2)ccc1O [Curcumin, reference compound] | orange | yellow | 63.88 | 68.53 | -18.66 | – | – | – | – | – | – |
| COc1cc(C2CC2C(=O)C(C)(C)C(=O)C2CC2c2ccc(O)c(OC)c2)ccc1O (stereo not shown) [compound of formula 1, 1,3-bis(2-(4-hydroxy-3-methoxyphenyl)cyclopropyl)-2,2-dimethylpropane-1,3-dione] | light yellow | colorless | 2.49 | 68.62 | -0.68 | 5591 | 2996 | significantly improved solubility | 232 | 286 | 8321 |
